Data reported in PubChem BioAssay AID248 (DTP/NCI, 2004).
Values joined by “and” are separate entries in the source; they are usually repeats but may differ in a detail not shown here. Equal values may be shown once. Toxic doses and inconclusive results are not listed.

System: L1210 leukemia ip in BDF1 mice, survival T/C
Test: NCI In Vivo Anticancer Drug Screen. Data for tumor model L1210 Leukemia (intraperitoneal) in B6D2F1 (BDF1) mice
Details: endpoint: mean survival time, higher = longer survival
Summary of the method: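 Ratio derived from survival: compound-dosed mice over vehicle-dosed mice, all bearing a transplantable tumor.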

[1] = dose: 100.0 mg/kg/injection, schedule: Q01DX009 (ip), vehicle: Klucel (hydroxypropylcellulose) (HPC)
[2] = dose: 100.0 mg/kg/injection, schedule: Q04DX003 (ip), vehicle: Klucel (hydroxypropylcellulose) (HPC)
[3] = dose: 200.0 mg/kg/injection, schedule: Q01DX009 (ip), vehicle: Klucel (hydroxypropylcellulose) (HPC)

CC(C)CCCC(C)C1CCC2C3CC=C4CC(OC(=O)C(Cl)(Cl)Cl)CCC4(C)C3CCC12C (stereo unspecified)
T/C (dose: 40.0 mg/kg/injection, schedule: Q01DX009 (sc), vehicle: steriod suspending solution): 94 % of control | T/C (dose: 50.0 mg/kg/injection, schedule: Q04DX003 (sc), vehicle: steriod suspending solution): 98 % of control | T/C (dose: 75.0 mg/kg/injection, schedule: Q01DX009 (sc), vehicle: steriod suspending solution): 101 % of control | T/C (dose: 100.0 mg/kg/injection, schedule: Q04DX003 (sc), vehicle: steriod suspending solution): 101 % of control | T/C (dose: 150.0 mg/kg/injection, schedule: Q01DX009 (sc), vehicle: steriod suspending solution): 95 % of control | T/C (dose: 200.0 mg/kg/injection, schedule: Q04DX003 (sc), vehicle: steriod suspending solution): 108 % of control

O=C(C[n+]1ccccc1)c1ccccc1
T/C (dose: 25.0 mg/kg/injection, schedule: Q04DX002 (ip), vehicle: saline): 98 % of control | T/C (dose: 50.0 mg/kg/injection, schedule: Q04DX002 (ip), vehicle: saline): 95 % of control | T/C (dose: 100.0 mg/kg/injection, schedule: Q04DX002 (ip), vehicle: saline): 98 % of control

Cc1ccc(N2C(N)=NC(N)=NC2(C)C)cc1
T/C (dose: 12.5 mg/kg/injection, schedule: Q01DX001 (ip), vehicle: saline): 100 % of control | T/C (dose: 25.0 mg/kg/injection, schedule: Q01DX001 (ip), vehicle: saline): 100 % of control

OC1CCC2NCCCC2C1 (stereo unspecified)
T/C (dose: 75.0 mg/kg/injection, schedule: Q01DX001 (ip), vehicle: carboxymethylcellulose (CMC)): 101 % of control | T/C (dose: 150.0 mg/kg/injection, schedule: Q01DX001 (ip), vehicle: carboxymethylcellulose (CMC)): 103 % of control

O=C1c2ccccc2C(=O)N1Cc1ncn[nH]1
T/C (dose: 100.0 mg/kg/injection, schedule: Q01DX001 (ip), vehicle: saline with Tween-80): 100 % of control | T/C (dose: 200.0 mg/kg/injection, schedule: Q01DX001 (ip), vehicle: saline with Tween-80): 96 % of control | T/C (dose: 400.0 mg/kg/injection, schedule: Q01DX001 (ip), vehicle: saline with Tween-80): 91 % of control

Nc1nc([Se])c2ncn(C3CC(O)C(CO)O3)c2n1 (stereo unspecified)
T/C (dose: 12.5 mg/kg/injection, schedule: Q01DX009 (ip), vehicle: saline): 196 % of control | T/C (dose: 25.0 mg/kg/injection, schedule: Q01DX005 (ip), vehicle: saline): 150 % of control and 151 % of control | T/C (dose: 25.0 mg/kg/injection, schedule: Q01DX009 (ip), vehicle: saline): 171 % of control | T/C (dose: 50.0 mg/kg/injection, schedule: Q01DX005 (ip), vehicle: saline): 123 % of control | T/C (dose: 50.0 mg/kg/injection, schedule: Q01DX009 (ip), vehicle: saline): 150 % of control

COc1cc(C(C)O)cc(OC)c1OC (stereo unspecified)
T/C (dose: 100.0 mg/kg/injection, schedule: Q01DX009 (ip), vehicle: saline with Tween-80): 101 % of control | T/C (dose: 100.0 mg/kg/injection, schedule: Q04DX003 (ip), vehicle: saline with Tween-80): 101 % of control | T/C (dose: 200.0 mg/kg/injection, schedule: Q01DX009 (ip), vehicle: saline with Tween-80): 98 % of control | T/C (dose: 200.0 mg/kg/injection, schedule: Q04DX003 (ip), vehicle: saline with Tween-80): 100 % of control | T/C (dose: 400.0 mg/kg/injection, schedule: Q01DX009 (ip), vehicle: saline with Tween-80): 93 % of control | T/C (dose: 400.0 mg/kg/injection, schedule: Q04DX003 (ip), vehicle: saline with Tween-80): 99 % of control

Nc1cc2c(cc1Cl)-c1ccccc1/C2=N\O
T/C (dose: 100.0 mg/kg/injection, schedule: Q01DX001 (ip), vehicle: carboxymethylcellulose (CMC)): 110 % of control | T/C (dose: 200.0 mg/kg/injection, schedule: Q01DX001 (ip), vehicle: carboxymethylcellulose (CMC)): 98 % of control | T/C (dose: 400.0 mg/kg/injection, schedule: Q01DX001 (ip), vehicle: carboxymethylcellulose (CMC)): 102 % of control

CC(c1ccccc1)n1ccnc1CO (stereo unspecified)
T/C (dose: 50.0 mg/kg/injection, schedule: Q01DX009 (ip), vehicle: Klucel (hydroxypropylcellulose) (HPC)): 103 % of control and 112 % of control | T/C (dose: 50.0 mg/kg/injection, schedule: Q04DX003 (ip), vehicle: Klucel (hydroxypropylcellulose) (HPC)): 98 % of control | T/C [1]: 102 % of control and 115 % of control | T/C [2]: 106 % of control | T/C [3]: 98 % of control

CCCCCCCCCCCCCCCCS(=O)(=O)c1ccc(NN)cc1
T/C [1]: 89 % of control | T/C [2]: 97 % of control | T/C [3]: 91 % of control | T/C (dose: 200.0 mg/kg/injection, schedule: Q04DX003 (ip), vehicle: Klucel (hydroxypropylcellulose) (HPC)): 98 % of control | T/C (dose: 400.0 mg/kg/injection, schedule: Q01DX009 (ip), vehicle: Klucel (hydroxypropylcellulose) (HPC)): 90 % of control | T/C (dose: 400.0 mg/kg/injection, schedule: Q04DX003 (ip), vehicle: Klucel (hydroxypropylcellulose) (HPC)): 105 % of control
